Laboratory results taken from US9315490B2, “2,5-substituted pyrimidines” (Grünenthal GmbH, priority 2014, dated 2016).

The compounds below were run against T1, human PDE4B1 (Homo sapiens, UniProt Q07343) (assay: cAMP HTRF assay to determine the activity of hPDE4B1). Settings: inhibition of PDE4B at a test concentration of 1 μM.
T1 construct: host or cells: Sf9 cells
Type: biochemical
Experimental: Biological Testing cAMP HTRF® Assay to Determine the Activity of hPDE4B1
The inhibiting effect of the compounds on the enzyme activity of human PDE4B1 was measured by the quantification of 5′-adenosine monophosphate (5′-AMP), which is formed from 3′,5′-cyclic adenosine monophosphate (cAMP). Human recombinant enzyme, expressed in Sf9 cells, and the HTRF (homogeneous time-resolved fluorescence) detection method were used in the assay.
The test compound or water (control) was mixed with the human recombinant PDE4B1 enzyme (4.8 U) in a buffer consisting of 44.4 mM tris-HCl, 5.28 mM MgCl2, 2.64 mM DTT and 0.044% Tween 20 (pH 7.8). After adding the cAMP enzyme substrate (final concentration 40 nM), the mixture was incubated for 30 minutes at room temperature. Then a fluorescence acceptor (Dye2 marked with cAMP), a fluorescence donor (anti-cAMP antibody marked with a europium cryptate) and the non-specific phosphodiesterase inhibitor IBMX (3-isobutyl-1-methylxanthine; final concentration 1 mM) were added. After 60 minutes the fluorescence transfer, which correlates with the amount of remaining cAMP, was measured with a microplate reader (Rubystar, BMG) at λex=337 nm, λem=620 nm and λem=665 nm. The enzyme activity was calculated from the quotient formed from the measured signal at 665 nm and that at 620 nm. The result was expressed as the percentage inhibition of enzyme activity of the control (without PDE4 inhibitor). The enzyme was omitted for measurement of the basal control. IC50 values (IC50=concentration causing a half-maximal inhibition of control specific activity) were derived from dose response measurements with eight different concentrations (n=2; N=1-3).
Literature: N. Saldou et al., Comparison of recombinant human PDE4 isoforms: interaction with substrate and inhibitors, Cell. Signal. Vol. 10, No. 6, 427-440, 1998

T1 sequence (Q07343 whole entry): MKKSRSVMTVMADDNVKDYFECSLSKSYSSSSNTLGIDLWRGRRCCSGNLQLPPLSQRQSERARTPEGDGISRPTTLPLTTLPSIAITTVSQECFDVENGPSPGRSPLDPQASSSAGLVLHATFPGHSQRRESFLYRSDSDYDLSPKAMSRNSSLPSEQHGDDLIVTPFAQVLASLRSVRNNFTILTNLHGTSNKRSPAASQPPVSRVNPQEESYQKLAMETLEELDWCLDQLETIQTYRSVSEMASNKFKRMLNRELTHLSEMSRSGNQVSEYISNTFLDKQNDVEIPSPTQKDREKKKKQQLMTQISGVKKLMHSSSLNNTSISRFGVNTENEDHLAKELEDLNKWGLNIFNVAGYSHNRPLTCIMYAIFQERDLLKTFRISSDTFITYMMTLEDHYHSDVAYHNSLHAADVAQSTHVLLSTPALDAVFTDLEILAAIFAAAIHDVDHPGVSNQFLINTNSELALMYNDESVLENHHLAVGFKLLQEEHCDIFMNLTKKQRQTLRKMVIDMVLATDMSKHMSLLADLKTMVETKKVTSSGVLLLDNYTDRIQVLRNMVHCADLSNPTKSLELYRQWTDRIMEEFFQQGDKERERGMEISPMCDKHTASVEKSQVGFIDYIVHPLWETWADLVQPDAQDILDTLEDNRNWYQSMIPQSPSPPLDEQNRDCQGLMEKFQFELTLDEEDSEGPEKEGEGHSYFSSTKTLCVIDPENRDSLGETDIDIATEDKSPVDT

Row | Compound | inhibition at 1 µM [%]
1 | C[S+]([O-])c1cn(-c2ncc(-c3ccccc3F)cn2)c2cc(C(=O)N3CCOCC3)ccc12 (stereo not drawn) [Example 1, (1-(5-(2-fluorophenyl)pyrimidin-2-yl)-3-(methylsulfinyl)-1H-indol-6-yl)(morpholino)methanone] | 104
2 | C[S+]([O-])c1cn(-c2ncc(-c3ccc(C(N)=O)cc3F)cn2)c2cc(C(=O)N3CCNCC3)ccc12 (stereo not drawn) [Example 15, 3-Fluoro-4-(2-(3-(methylsulfinyl)-6-(piperazine-1-carbonyl)-1H-indol-1-yl)pyrimidin-5-yl)benzamide] | 44
3 | CS(=O)(=O)c1cn(-c2ncc(-c3ccccc3)cn2)c2cc(C(=O)N3CCNCC3)ccc12 [Example 21, (3-(Methylsulfonyl)-1-(5-phenylpyrimidin-2-yl)-1H-indol-6-yl)(piperazin-1-yl)methanone] | 32
4 | CC(O)c1cn(-c2ncc(-c3ccccc3F)cn2)c2cc(C(=O)N3CCOCC3)ccc12 (stereo not drawn) [Example 28, (1-(5-(2-fluorophenyl)pyrimidin-2-yl)-3-(1-hydroxyethyl)-1H-indol-6-yl)(morpholino)methanone] | 98
5 | C[S+]([O-])c1cn(-c2ncc(-c3cccc(F)c3F)cn2)c2cc(C(=O)N3CCOCC3)ccc12 (stereo not drawn) [Example 30, (1-(5-(2,3-Difluorophenyl)pyrimidin-2-yl)-3-(methylsulfinyl)-1H-indol-6-yl)(morpholino)methanone] | 106
6 | C[S+]([O-])c1cn(-c2ncc(-c3ccc(C#N)cc3)cn2)c2cc(C(=O)N3CCOCC3)ccc12 (stereo not drawn) [Example 31, 4-(2-(3-(Methylsulfinyl)-6-(morpholine-4-carbonyl)-1H-indol-1-yl)pyrimidin-5-yl)benzonitrile] | 75
7 | C[S+]([O-])c1cn(-c2ncc(-c3ccc(F)cc3)cn2)c2cc(C(=O)N3CCOCC3)ccc12 (stereo not drawn) [Example 32, (1-(5-(4-Fluorophenyl)pyrimidin-2-yl)-3-(methylsulfinyl)-1H-indol-6-yl)(morpholino)methanone] | 80
8 | COc1ccc(-c2cnc(-n3cc([S+](C)[O-])c4ccc(C(=O)N5CCOCC5)cc43)nc2)cc1 (stereo not drawn) [Example 33, (1-(5-(4-Methoxyphenyl)pyrimidin-2-yl)-3-(methylsulfinyl)-1H-indol-6-yl)(morpholino)methanone] | 88
9 | C[S+]([O-])c1cn(-c2ncc(-c3cccc(F)c3)cn2)c2cc(C(=O)N3CCOCC3)ccc12 (stereo not drawn) [Example 34, (1-(5-(3-Fluorophenyl)pyrimidin-2-yl)-3-(methylsulfinyl)-1H-indol-6-yl)(morpholino)methanone] | 90
10 | C[S+]([O-])c1cn(-c2ncc(-c3cccc(C(N)=O)c3)cn2)c2cc(C(=O)N3CCOCC3)ccc12 (stereo not drawn) [Example 35, 3-(2-(3-(Methylsulfinyl)-6-(morpholine-4-carbonyl)-1H-indol-1-yl)pyrimidin-5-yl)benzamide] | 67
11 | C[S+]([O-])c1cn(-c2ncc(-c3cccc(S(C)(=O)=O)c3)cn2)c2cc(C(=O)N3CCOCC3)ccc12 (stereo not drawn) [Example 36, (3-(Methylsulfinyl)-1-(5-(3-(methylsulfonyl)phenyl)pyrimidin-2-yl)-1H-indol-6-yl)(morpholino)methanone] | 90
12 | Cc1cccc(-c2cnc(-n3cc([S+](C)[O-])c4ccc(C(=O)N5CCOCC5)cc43)nc2)c1 (stereo not drawn) [Example 37, (3-(Methylsulfinyl)-1-(5-(m-tolyl)pyrimidin-2-yl)-1H-indol-6-yl)(morpholino)methanone] | 103
13 | COc1ccc(F)c(-c2cnc(-n3cc([S+](C)[O-])c4ccc(C(=O)N5CCOCC5)cc43)nc2)c1 (stereo not drawn) [Example 38, (1-(5-(2-Fluoro-5-methoxyphenyl)pyrimidin-2-yl)-3-(methylsulfinyl)-1H-indol-6-yl)(morpholino)methanone] | 102
14 | COc1ccc(-c2cnc(-n3cc([S+](C)[O-])c4ccc(C(=O)N5CCOCC5)cc43)nc2)c(F)c1 (stereo not drawn) [Example 39, (1-(5-(2-Fluoro-4-methoxyphenyl)pyrimidin-2-yl)-3-(methylsulfinyl)-1H-indol-6-yl)(morpholino)methanone] | 105
15 | C[S+]([O-])c1cn(-c2ncc(-c3cccc(C#N)c3)cn2)c2cc(C(=O)N3CCOCC3)ccc12 (stereo not drawn) [Example 40, 3-(2-(3-(Methylsulfinyl)-6-(morpholine-4-carbonyl)-1H-indol-1-yl)pyrimidin-5-yl)benzonitrile] | 93
16 | C[S+]([O-])c1cn(-c2ncc(-c3cc(O)ccc3F)cn2)c2cc(C(=O)N3CCOCC3)ccc12 (stereo not drawn) [Example 41, (1-(5-(2-Fluoro-5-hydroxyphenyl)pyrimidin-2-yl)-3-(methylsulfinyl)-1H-indol-6-yl)(morpholino)methanone] | 100
17 | C[S+]([O-])c1cn(-c2ncc(-c3ccc(C(N)=O)cc3)cn2)c2cc(C(=O)N3CCOCC3)ccc12 (stereo not drawn) [Example 42, 4-(2-(3-(Methylsulfinyl)-6-(morpholine-4-carbonyl)-1H-indol-1-yl)pyrimidin-5-yl)benzamide] | 86
18 | C[S+]([O-])c1cn(-c2ncc(-c3cc(C(N)=O)ccc3F)cn2)c2cc(C(=O)N3CCOCC3)ccc12 (stereo not drawn) [Example 43, 4-Fluoro-3-(2-(3-(methylsulfinyl)-6-(morpholine-4-carbonyl)-1H-indol-1-yl)pyrimidin-5-yl)benzamide] | 83
19 | C[S+]([O-])c1cn(-c2ncc(-c3c(F)cccc3F)cn2)c2cc(C(=O)N3CCOCC3)ccc12 (stereo not drawn) [Example 44, (1-(5-(2,6-Difluorophenyl)pyrimidin-2-yl)-3-(methylsulfinyl)-1H-indol-6-yl)(morpholino)methanone] | 82
20 | COc1cccc(-c2cnc(-n3cc([S+](C)[O-])c4ccc(C(=O)N5CCOCC5)cc43)nc2)c1 (stereo not drawn) [Example 45, (1-(5-(3-Methoxyphenyl)pyrimidin-2-yl)-3-(methylsulfinyl)-1H-indol-6-yl)(morpholino)methanone] | 115
21 | Cc1ccc(-c2cnc(-n3cc([S+](C)[O-])c4ccc(C(=O)N5CCOCC5)cc43)nc2)cc1 (stereo not drawn) [Example 46, (3-(Methylsulfinyl)-1-(5-(p-tolyl)pyrimidin-2-yl)-1H-indol-6-yl)(morpholino)methanone] | 102
22 | C[S+]([O-])c1cn(-c2ncc(-c3ccncc3)cn2)c2cc(C(=O)N3CCOCC3)ccc12 (stereo not drawn) [Example 47, (3-(Methylsulfinyl)-1-(5-(pyridin-4-yl)pyrimidin-2-yl)-1H-indol-6-yl)(morpholino)methanone] | 61
23 | C[S+]([O-])c1cn(-c2ncc(-c3cccnc3F)cn2)c2cc(C(=O)N3CCOCC3)ccc12 (stereo not drawn) [Example 48, (1-(5-(2-Fluoropyridin-3-yl)pyrimidin-2-yl)-3-(methylsulfinyl)-1H-indol-6-yl)(morpholino)methanone] | 63
24 | C[S+]([O-])c1cn(-c2ncc(-c3cccnc3)cn2)c2cc(C(=O)N3CCOCC3)ccc12 (stereo not drawn) [Example 49, (3-(Methylsulfinyl)-1-(5-(pyridin-3-yl)pyrimidin-2-yl)-1H-indol-6-yl)(morpholino)methanone] | 72
25 | C[S+]([O-])c1cn(-c2ncc(-c3ccccn3)cn2)c2cc(C(=O)N3CCOCC3)ccc12 (stereo not drawn) [Example 50, (3-(Methylsulfinyl)-1-(5-(pyridin-2-yl)pyrimidin-2-yl)-1H-indol-6-yl)(morpholino)methanone] | 91
26 | C[S+]([O-])c1cn(-c2ncc(-c3ccccc3F)cn2)c2cc(C(=O)N3CCCC3)ccc12 (stereo not drawn) [Example 51, (1-(5-(2-Fluorophenyl)pyrimidin-2-yl)-3-(methylsulfinyl)-1H-indol-6-yl)(pyrrolidin-1-yl)methanone] | 86
27 | CN(C)C(=O)c1ccc2c([S+](C)[O-])cn(-c3ncc(-c4ccccc4F)cn3)c2c1 (stereo not drawn) [Example 52, 1-(5-(2-Fluorophenyl)pyrimidin-2-yl)-N,N-dimethyl-3-(methylsulfinyl)-1H-indole-6-carboxamide] | 91

Same assay, conditions: inhibition of PDE4B at a test concentration of 1 μM, 1 µM

Row | Compound | Inhibition in % [%]
28 | CC1CC(C)CN(C(=O)c2ccc3c([S+](C)[O-])cn(-c4ncc(-c5ccccc5F)cn4)c3c2)C1 (single isomer, unassigned) [Example 373, (3,5-Dimethylpiperidin-1-yl)(1-(5-(2-fluorophenyl)pyrimidin-2-yl)-3-(methylsulfinyl)-1H-indol-6-yl)methanone] | 36
29 | CC1CN(C(=O)c2ccc3c([S+](C)[O-])cn(-c4ncc(-c5ccccc5F)cn4)c3c2)CC(C)O1 (single isomer, unassigned) [Example 377, (2,6-Dimethylmorpholino)(1-(5-(2-fluorophenyl)pyrimidin-2-yl)-3-(methylsulfinyl)-1H-indol-6-yl)methanone] | 70
30 | CC1CN(C(=O)c2ccc3c([S+](C)[O-])cn(-c4ncc(-c5ccccc5F)cn4)c3c2)CC(C)O1 (single isomer, unassigned) [Example 378, (2,6-Dimethylmorpholino)(1-(5-(2-fluorophenyl)pyrimidin-2-yl)-3-(methylsulfinyl)-1H-indol-6-yl)methanone] | 31
